Data from PMC3166231 (Inorganic chemistry, 2010).
Where a name gives a salt, the structure may show the parent alone. Read-outs that look alike come from different tables or passages of the source. Marks after values point to notes of the source that are not given here.

Tests used:
[1] = pH = 7.4, [Fe3+] = 1.0 × 10^−6 mol dm^−3, [L] = 1.0 × 10^−5 mol dm^−3, cited from earlier work
[2] = cited from earlier work; for pFe: bidentate donor group, ref [17]–[20]; for K2 (proton independent stepwise formation constant): second ligand; for K3 (proton independent stepwise formation constant): third ligand
[3] = Literature Fe; format: binding; details: refs [19], [21]; for Δ1–2: difference K1 − K2 of cited stepwise constants; for Δ2–3: difference K2 − K3 of cited stepwise constants
[4] = ref [14]; cited from earlier work

In the case of `Cn1cccc(O)c1=O` [1-methyl-3-hydroxypyridin-2-one], the pFe ([1]; ref [63]) is listed as 16 ^b.
For `O=c1[nH]cccc1O` [3,2-HOPO], the pFe [2] is given as 16.26, the “K1 (proton independent stepwise formation constant)” value ([2]; iron complex, first ligand, ref [19], [21]) is given as 11.48 and the “K2 (proton independent stepwise formation constant)” value ([2]; iron complex, ref [19], [21]) is given as 9.77. The “K3 (proton independent stepwise formation constant)” value ([2]; iron complex, ref [19], [21]) was 8.01, the “Δ1–2” value [3] was 1.71 and the “Δ2–3” value [3] was 1.76.
In the case of `Oc1cccnc1O` [3-hydroxy-2-pyridinone], the “pKa of the 3-hydroxy-2-pyridinone donor group alone” value [4] is listed as 8.66.
For `O=C(O)c1ccc(-n2nc(-c3ccccc3O)nc2-c2ccccc2O)cc1` [Deferasirox, deferasirox], the pFe ([1]; ref [65]) is listed as 23.5 ^d.
In the case of `Cc1c(O)c(=O)ccn1C` [Deferiprone, 1,2-dimethyl-3-hydroxy-4-pyridinone], the pFe ([1]; ref [64]) is given as 19.4 ^c.
In the case of `CC(=O)N(O)CCCCCNC(=O)CCC(=O)N(O)CCCCCNC(=O)CCC(=O)N(O)CCCCCN` [Deferrioxamine B, desferrioxamine B mesylate], the pFe ([1]; ref [67]) is given as 26.6 ^h.
For `Oc1ccccc1O` [catechol], the pFe [2] is given as 15.1, the “K2 (proton independent stepwise formation constant)” value ([2]; iron complex, ref [19], [21]) is given as 15.5 and the “K3 (proton independent stepwise formation constant)” value ([2]; iron complex, ref [19], [21]) is given as 9.4. For the same compound, the “Δ1–2” value [3] was 4.9 and the “Δ2–3” value [3] was 6.1.
For “Transferrin: iron transport protein used as pFe comparison”, the pFe ([1]; ref [66]) is given as 23.6 ^e.
